Data as given in PubChem BioAssay AID743436 (The Scripps Research Institute Molecular Screening Center, 2014).
Calls of active or inactive are those of the source. No rule for the calls is given here.

Test system: S1PR3 cell line viability, luminescence counterscreen
Experiment: cell viability loss, dose response – luminescence, cytotoxicity control for S1PR3 antagonist project, late-stage follow-up (AID 743436)

| SMILES | CC50 |
| --- | --- |
| Cc1ccc(C(NC(=O)c2cccc(Cl)c2)c2nc(-c3ccccc3)no2)cc1 (stereo unspecified) | > 28.2 µM (inactive) |
| O=C(NC(c1ccc(Cl)c(Cl)c1)c1nc(-c2ccccc2)no1)c1ccc(Cl)c(Cl)c1 (stereo unspecified) | > 28.2 µM (inactive) |
| COc1ccc(C(=O)NC(c2ccccc2)c2nc(-c3ccccc3)no2)cc1 (stereo unspecified) | > 28.2 µM (inactive) |
| N#Cc1ccc(C(=O)NC(c2ccc(Cl)c(Cl)c2)c2nc(-c3ccccc3)no2)cc1 (stereo unspecified) | > 28.2 µM (inactive) |
| O=C(NC(c1nc(-c2ccccc2)no1)C1CCOCC1)c1ccc(Cl)c(Cl)c1 (stereo unspecified) | > 28.2 µM (inactive) |
| O=C(NC(c1ccc(Cl)cc1)c1nc(-c2ccccc2)no1)c1ccc(Cl)c(Br)c1 (stereo unspecified) | > 28.2 µM (inactive) |
| O=C(NC(c1ccc(Cl)c(Cl)c1)c1nc(-c2ccccc2)no1)c1ccc(Cl)cc1 (stereo unspecified) | > 28.2 µM (inactive) |
| Clc1ccc(CNC(c2ccccc2)c2nc(-c3ccccc3)no2)cc1Cl (stereo unspecified) | > 28.2 µM (inactive) |
| O=C(c1cccc(Cl)c1)N(CCO)C(c1ccc(Cl)c(Cl)c1)c1nc(-c2ccccc2)no1 (stereo unspecified) | > 28.2 µM (inactive) |
| O=C(NC(Cc1ccccc1)c1nc(-c2ccccc2)no1)c1cccc(Cl)c1 (stereo unspecified) | > 28.2 µM (inactive) |
| O=C(NC(c1ccc(Cl)c(Cl)c1)c1nc(-c2ccccc2)no1)c1cccc(Cl)c1 (stereo unspecified) | > 28.2 µM (inactive) |
| O=C(NC(c1ccccc1)c1nc(-c2ccccc2)no1)c1ccc(Cl)c(Cl)c1 (stereo unspecified) | > 28.2 µM (inactive) |
| O=C(Nc1ccc(Cl)c(Cl)c1)NC(c1ccccc1)c1nc(-c2ccccc2)no1 (stereo unspecified) | 7.7 µM |
| O=C(NC(c1ccccc1)c1nc(-c2ccccc2)no1)c1cccc(Cl)n1 (stereo unspecified) | > 28.2 µM (inactive) |
| O=C(NC(c1ccc(Cl)cc1)c1nc(-c2cccc(Cl)c2)no1)c1cccc(Cl)c1 (stereo unspecified) | > 28.2 µM (inactive) |
| O=C(NC(c1ccc(Cl)c(Cl)c1)c1nc(-c2ccccc2)no1)c1ccccc1 (stereo unspecified) | 24.7 µM (inactive) |

| SMILES | CC50 |
| --- | --- |
| O=C(NC(c1cccc(Cl)c1)c1nc(-c2ccccc2)no1)c1cccc(Cl)c1 (stereo unspecified) | > 28.2 µM (inactive) |
| O=C(NC(c1cccc(Cl)c1)c1nc(-c2ccccc2)no1)c1ccc(Cl)c(Cl)c1 (stereo unspecified) | > 28.2 µM (inactive) |
| O=C(Cc1ccc(Cl)c(Cl)c1)NC(c1ccccc1)c1nc(-c2ccccc2)no1 (stereo unspecified) | > 28.2 µM (inactive) |
| O=C(NC(c1ccc(Cl)cc1)c1nc(-c2ccccc2)no1)c1cccc(Br)c1 (stereo unspecified) | > 28.2 µM (inactive) |
| O=C(NC(c1ccc(Br)cc1)c1nc(-c2ccccc2)no1)c1ccc(Cl)c(Cl)c1 (stereo unspecified) | > 28.2 µM (inactive) |
| O=C(NC(c1ccc(Cl)cc1)c1nc(-c2ccccc2)no1)c1cccc(Cl)c1 (stereo unspecified) | > 28.2 µM (inactive) |
| O=C(NC(c1cccc(Cl)c1)c1nc(-c2ccccc2)no1)c1cc(Cl)cc(Cl)c1 (stereo unspecified) | > 28.2 µM (inactive) |
| CCc1ccc(C(NC(=O)c2cccc(Cl)c2)c2nc(-c3ccccc3)no2)cc1 (stereo unspecified) | > 28.2 µM (inactive) |
| O=C(NC(c1ccccc1)c1nc(-c2ccccc2)no1)c1cccc(Cl)c1 (stereo unspecified) | > 28.2 µM (inactive) |
| O=C(NC(c1ccccc1)c1nc(-c2ccccc2)no1)c1cccc(Br)c1 (stereo unspecified) | > 28.2 µM (inactive) |
| Cc1ccc(C(=O)NC(c2ccccc2)c2nc(-c3ccccc3)no2)cc1 (stereo unspecified) | > 28.2 µM (inactive) |
| O=C(NC(c1ccc(Cl)cc1)c1nc(-c2ccccn2)no1)c1cccc(Cl)c1 (stereo unspecified) | > 28.2 µM (inactive) |
| O=C(NC(c1nc(-c2ccccc2)no1)C1CCCCC1)c1ccc(Cl)c(Cl)c1 (stereo unspecified) | > 28.2 µM (inactive) |
| O=C(NC(c1ccccc1)c1nc(-c2ccccc2)no1)c1ccc(Cl)cc1 (stereo unspecified) | > 28.2 µM (inactive) |
| O=C(NC(c1ccc(Cl)cc1)c1nc(-c2ccccc2)no1)c1ccc(Cl)c(Cl)c1 (stereo unspecified) | > 28.2 µM (inactive) |
